ChEMBL document CHEMBL4414598, “Trifluorinated Pyrimidine-Based A2B Antagonists: Optimization and Evidence of Stereospecific Recognition” (J Med Chem, 2019)

Tests used:
[1] = target: T1, Adenosine receptor A1 (Homo sapiens) (UniProt P30542); experiment: Displacement of [3H]DPCPX from human recombinant A1 receptor expressed in CHOA1 cell membranes at 1 uM incubated for 60 mins by radioligand binding competition assay relative to control
T1 sequence (whole entry): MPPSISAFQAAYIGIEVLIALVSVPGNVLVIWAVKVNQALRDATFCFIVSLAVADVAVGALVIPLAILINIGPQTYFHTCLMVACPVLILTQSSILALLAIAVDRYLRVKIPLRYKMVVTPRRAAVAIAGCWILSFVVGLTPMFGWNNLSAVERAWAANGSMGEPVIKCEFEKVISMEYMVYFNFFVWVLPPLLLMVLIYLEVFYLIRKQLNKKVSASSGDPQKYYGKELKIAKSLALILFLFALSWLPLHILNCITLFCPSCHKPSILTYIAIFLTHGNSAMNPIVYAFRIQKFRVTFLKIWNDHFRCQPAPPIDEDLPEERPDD

[2] = target: T2, Adenosine receptor A3 (Homo sapiens) (UniProt P0DMS8); experiment: Displacement of [3H]NECA from human A3 receptor expressed in human HeLa cell membranes at 1 uM incubated for 180 mins by radioligand binding competition assay relative to control
T2 sequence (whole entry): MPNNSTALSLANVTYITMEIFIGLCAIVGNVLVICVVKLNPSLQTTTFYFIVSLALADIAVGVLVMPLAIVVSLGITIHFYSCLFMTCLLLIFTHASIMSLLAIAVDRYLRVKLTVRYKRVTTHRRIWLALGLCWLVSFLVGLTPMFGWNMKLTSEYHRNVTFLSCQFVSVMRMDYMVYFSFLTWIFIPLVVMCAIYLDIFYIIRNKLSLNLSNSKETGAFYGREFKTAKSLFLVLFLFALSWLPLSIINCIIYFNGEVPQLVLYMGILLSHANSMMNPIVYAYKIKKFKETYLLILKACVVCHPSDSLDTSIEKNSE

Adenosine receptor A2a = Adenosine receptor A2a (Homo sapiens, UniProt P29274); experiment: Displacement of [3H]ZM241385 from human recombinant A2A receptor expressed in human HeLa cell membranes at 1 uM incubated for 30 mins by radioligand binding competition assay relative to control
[3] = target: T3, Adenosine receptor A2b (Homo sapiens) (UniProt P29275); experiment: Displacement of [3H]DPCPX from human recombinant A2B receptor expressed in human HEK293 cell membranes at 1 uM incubated for 30 mins by radioligand binding competition assay relative to control
T3 sequence (whole entry): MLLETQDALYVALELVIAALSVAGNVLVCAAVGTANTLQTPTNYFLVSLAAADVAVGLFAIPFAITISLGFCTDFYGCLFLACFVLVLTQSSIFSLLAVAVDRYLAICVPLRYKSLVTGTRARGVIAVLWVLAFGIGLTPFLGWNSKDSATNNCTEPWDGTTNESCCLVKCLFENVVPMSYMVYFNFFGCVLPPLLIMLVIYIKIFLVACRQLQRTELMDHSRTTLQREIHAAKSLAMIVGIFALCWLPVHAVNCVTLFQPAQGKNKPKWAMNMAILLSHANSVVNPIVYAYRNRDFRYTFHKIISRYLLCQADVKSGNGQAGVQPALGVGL

Chain of Adenosine receptor A2a (P29274 whole entry): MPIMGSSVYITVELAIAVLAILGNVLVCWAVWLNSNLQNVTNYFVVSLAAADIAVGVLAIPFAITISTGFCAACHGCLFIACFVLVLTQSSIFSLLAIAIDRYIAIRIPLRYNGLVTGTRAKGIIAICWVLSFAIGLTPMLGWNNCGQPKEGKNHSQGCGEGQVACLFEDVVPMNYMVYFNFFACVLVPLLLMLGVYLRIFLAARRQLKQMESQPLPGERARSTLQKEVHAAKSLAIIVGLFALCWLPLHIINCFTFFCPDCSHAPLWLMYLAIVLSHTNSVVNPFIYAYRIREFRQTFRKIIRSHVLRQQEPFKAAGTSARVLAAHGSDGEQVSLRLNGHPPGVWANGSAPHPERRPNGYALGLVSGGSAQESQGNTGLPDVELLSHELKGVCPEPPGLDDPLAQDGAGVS

Structure (SMILES)	inhibition [1]	inhibition [2]	inhibition (Adenosine receptor A2a)	inhibition [3]
CC1=C(C(=O)OC(C)C(F)(F)F)C(c2ccsc2)NC(=O)N1 (stereo in doubt; 14l-D1)	3%	2%	2%	
CC1=C(C(=O)OC(C(F)(F)F)C(F)(F)F)C(c2ccsc2)NC(=O)N1 (racemic)	17%	8%	1%	1%
CC1=C(C(=O)OC(C(F)(F)F)C(F)(F)F)C(c2ccco2)n2c(nc3ccccc32)N1 (racemic)	16%	24%	2%	16%
CC1=C(C(=O)O[C@@H](C)C(F)(F)F)[C@H](c2ccco2)n2c(nc3ccccc32)N1	7%	9%	19%	35%
CC(C)OC(=O)C1=C(C(F)(F)F)NC(=O)NC1c1ccoc1 (racemic)	27%	1%	21%	37%
CC1=C(C(=O)O[C@H](C)C(F)(F)F)[C@H](c2ccco2)n2c(nc3ccccc32)N1	2%	1%	2%	18%
CC1=C(C(=O)OC(C(F)(F)F)C(F)(F)F)C(c2ccoc2)NC(=O)N1 (racemic)	7%	1%	22%	2%
CC(C)OC(=O)C1=C(C(F)(F)F)Nc2nc3ccccc3n2C1c1ccsc1 (racemic)	10%	2%	3%	48%
CC1=C(C(=O)OC(C)C)C(c2cccs2)n2c(nc3ccccc32)N1 (stereo not drawn)	1%	3%	17%	
CC1=C(C(=O)OC(C(F)(F)F)C(F)(F)F)C(c2cccs2)NC(=O)N1 (racemic)	9%	1%	1%	1%
CC1=C(C(=O)OC(C(F)(F)F)C(F)(F)F)C(c2ccsc2)n2c(nc3ccccc32)N1 (racemic)	3%	1%	15%	1%
CC1=C(C(=O)OC(C)C)C(c2ccoc2)n2c(nc3ccccc32)N1 (stereo not drawn)	12%	2%	23%	
CCOC(=O)C1=C(C)Nc2nc3ccccc3n2C1c1ccsc1 (stereo not drawn)	3%	2%	10%	
CC(C)OC(=O)C1=C(C(F)(F)F)Nc2nc3ccccc3n2C1c1ccco1 (racemic)	3%	5%	10%	39%
CC1=C(C(=O)OC(C)C(F)(F)F)C(c2cccs2)NC(=O)N1 (stereo in doubt; 14k-D2)	16%	3%	1%	1%
CC1=C(C(=O)OC(C)C(F)(F)F)C(c2ccoc2)NC(=O)N1 (stereo in doubt; 14j-D1)	10%	12%	1%	
CC1=C(C(=O)OC(C)C(F)(F)F)C(c2ccsc2)NC(=O)N1 (stereo in doubt; 14l-D2)	3%	1%	2%	1%
CC1=C(C(=O)OC(C)C)C(c2ccsc2)n2c(nc3ccccc32)N1 (stereo not drawn)	11%	21%	3%	
CCOC(=O)C1=C(C(F)(F)F)Nc2nc3ccccc3n2C1c1cccs1 (racemic)	7%	19%	4%	38%
CC1=C(C(=O)OC(C)C(F)(F)F)C(c2cccs2)NC(=O)N1 (stereo in doubt; 14k-D1)	12%	3%	2%	4%

Now from value to compound:

inhibition [1]	inhibition [2]	inhibition (Adenosine receptor A2a)	inhibition [3]	Structure (SMILES)
28%	1%	20%	16%	CCOC(=O)C1=C(C(F)(F)F)NC(=O)NC1c1cccs1 (racemic)
8%	1%	16%		CCOC(=O)C1=C(C)Nc2nc3ccccc3n2C1c1cccs1 (stereo not drawn)
12%	8%	3%		CC1=C(C(=O)OCC(F)(F)F)[C@H](c2ccco2)n2c(nc3ccccc32)N1
1%	5%	1%	23%	CC1=C(C(=O)OC(C)C(F)(F)F)C(c2ccoc2)NC(=O)N1 (stereo in doubt; 14j-D2)
1%	11%	3%		CC1=C(C(=O)OC(C)C(F)(F)F)C(c2ccco2)NC(=O)N1 (stereo in doubt; 14i-D1)
6%	2%	1%	1%	CC1=C(C(=O)OC(C(F)(F)F)C(F)(F)F)C(c2ccco2)NC(=O)N1 (racemic)
24%	6%	10%	21%	CC1=C(C(=O)OC(C(F)(F)F)C(F)(F)F)C(c2ccoc2)n2c(nc3ccccc32)N1 (racemic)
8%	7%	13%	19%	CC(C)OC(=O)C1=C(C(F)(F)F)NC(=O)NC1c1cccs1 (racemic)
4%	1%	1%	17%	CC(C)OC(=O)C1=C(C(F)(F)F)Nc2nc3ccccc3n2C1c1cccs1 (racemic)
2%	1%	1%	24%	CC1=C(C(=O)OCC(F)(F)F)C(c2ccsc2)NC(=O)N1 (racemic)
11%	19%	10%	7%	CC1=C(C(=O)OC(C(F)(F)F)C(F)(F)F)C(c2cccs2)n2c(nc3ccccc32)N1 (racemic)
10%	3%	17%		CCOC(=O)C1=C(C(F)(F)F)Nc2nc3ccccc3n2[C@H]1c1ccoc1
1%	7%	1%		CC1=C(C(=O)OC(C)C(F)(F)F)C(c2ccco2)NC(=O)N1 (stereo in doubt; 14i-D2)
3%	1%	3%	1%	CC1=C(C(=O)OCC(F)(F)F)C(c2cccs2)NC(=O)N1 (racemic)
2%	2%	24%	47%	CC1=C(C(=O)OC(C)C(F)(F)F)C(c2ccsc2)n2c(nc3ccccc32)N1 (racemic)
7%	1%	11%		CCOC(=O)C1=C(C)Nc2nc3ccccc3n2C1c1ccoc1 (stereo not drawn)
1%	2%	7%	6%	CC1=C(C(=O)OCC(F)(F)F)C(c2cccs2)n2c(nc3ccccc32)N1 (racemic)
7%	2%	17%	30%	CC1=C(C(=O)OCC(F)(F)F)C(c2ccsc2)n2c(nc3ccccc32)N1 (racemic)
5%	1%	14%		CCOC(=O)C1=C(C)Nc2nc3ccccc3n2C1c1ccco1 (stereo not drawn)
